According to patent publication US10377985B2, “Neural progenitor cell differentiation” (priority 2013, dated 2019):
“And” between values parts separate entries of the source, which are not always exact repeats. Equal entries are not always repeated. “Also recorded” adds a separate entry of the source.

Columns and labels:
[1] = test system: native rabbit intestinal tissue
[2] = test system: native rabbit intestinal tissue; remark: listed apart in the source
[3] = test system: native rabbit intestinal tissue; assay: Electrical field stimulation induced relaxation, real-time force generation
[4] = test system: tissue engineered innervated intestinal smooth muscle sheets; format: cell-based, rabbit
[5] = test system: tissue engineered innervated intestinal smooth muscle sheets; assay: Electrical field stimulation induced relaxation, real-time force generation; format: cell-based, rabbit

## CC(=O)OCC[N+](C)(C)C [Ach, Acetylcholine]
[1]; 1 μM Ach, native tissue
  area under the curve of Ach-induced contraction: 70448±5876 AU
  peak Ach-induced contraction: 342.6±3.15 μN

## [Cl-].[K+] [KCl, Potassium chloride]
[2]
  peak KCl-induced contraction: 373.5±10.63 μN and 373.3±10.63 μN

## COC(=O)[C@@H](N)CCCNC(=N)N[N+](=O)[O-].Cl [L-NAME, Nω-Nitro-L-arginine methyl ester hydrochloride]
[3]; L-NAME 300 μM pre-treatment, hydrochloride
  inhibition of EFS-induced relaxation with L-NAME: 78±2.9% and ~78%
[3]; Oryctolagus cuniculus, L-NAME 300 μM pre-treatment, read-out: inhibition of EFS-induced relaxation with L-NAME
  inhibition at 300 µM: 78 ± 2.85%

## NC1=N[C@H](O)[C@H]2[C@H]3O[C@]4(O)O[C@@H]([C@@H](O)[C@@]2(N1)[C@@H]4O)[C@]3(O)CO [TTX, tetrodotoxin]
[4]
  effect of TTX pre-treatment on KCl-induced contraction: unaffected; also recorded: did not inhibit
[1]
  inhibition of Ach-induced contraction with TTX: 72.73±3.66% and 72.73±3.7%
[5]
  effect of TTX pre-treatment on EFS-induced relaxation: inhibited entirely

## [D-p-Cl-Phe6, Leu17]-Vasoactive Intestinal Peptide [VIP-Ra]
[3]; VIP-Ra 2 μM pre-treatment
  inhibition of EFS-induced relaxation with VIP-Ra: 73.32±3.23%
